Like-named read-outs stand apart in the source and are kept apart here. One block for each molecule: values may come before it.
Tests used:
[1] = target: T1, murine SMOX (Mus musculus, UniProt Q99K82); assay: Inhibition of SMOX activity, spermine as substrate; format: biochemical; conditions: for SMOX Kmapp/Km0: 50 μM compound, relative to control
[2] = target: murine PAOX (Mus musculus, UniProt Q8C0L6); assay: Inhibition of PAOX activity, N1AcSPM as substrate; format: biochemical; conditions: for PAOX Kmapp/Km0: 50 μM compound, relative to control; for PAOX Kmapp: Km of N1AcSPM in the presence of 50 μM compound
Chain of murine PAOX (Q8C0L6 whole entry): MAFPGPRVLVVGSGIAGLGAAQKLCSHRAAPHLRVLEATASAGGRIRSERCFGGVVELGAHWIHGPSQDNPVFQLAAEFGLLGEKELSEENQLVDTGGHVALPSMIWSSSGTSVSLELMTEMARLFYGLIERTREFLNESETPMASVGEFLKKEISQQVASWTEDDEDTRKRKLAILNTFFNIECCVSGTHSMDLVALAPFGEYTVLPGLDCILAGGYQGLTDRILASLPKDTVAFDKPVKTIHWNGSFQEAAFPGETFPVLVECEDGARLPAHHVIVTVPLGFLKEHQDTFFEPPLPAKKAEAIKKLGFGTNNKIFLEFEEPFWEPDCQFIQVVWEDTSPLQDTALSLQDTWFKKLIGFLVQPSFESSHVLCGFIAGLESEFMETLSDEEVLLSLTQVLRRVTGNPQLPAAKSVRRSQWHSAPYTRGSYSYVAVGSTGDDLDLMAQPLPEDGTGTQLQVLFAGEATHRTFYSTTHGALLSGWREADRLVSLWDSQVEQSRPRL

[3] = system: human MAO A; conditions: cited from earlier work
[4] = target: T1, murine SMOX; conditions: read-out: SMOX Ki; purified murine SMOX; cited from earlier work
[5] = system: MAOs; assay: Amine oxidase activity in HT22 cell lysate, tyramine as substrate; format: biochemical, mouse; conditions: tyramine 1 mM, after pre-incubation with inhibitor
[6] = cited from earlier work
[7] = target: PAOX activity in HT22 cells (Mus musculus, UniProt Q8C0L6); assay: PAOX activity in whole HT22 cells; format: cell-based
Chain of PAOX activity in HT22 cells (Q8C0L6 whole entry): as above

[8] = system: ODC; conditions: at a concentration of 10 μM; cited from earlier work
[9] = system: SSAT; conditions: at a concentration of 10 μM; cited from earlier work
[10] = Km of SPM in the presence of 50 μM compound

T1 sequence (Q99K82 whole entry): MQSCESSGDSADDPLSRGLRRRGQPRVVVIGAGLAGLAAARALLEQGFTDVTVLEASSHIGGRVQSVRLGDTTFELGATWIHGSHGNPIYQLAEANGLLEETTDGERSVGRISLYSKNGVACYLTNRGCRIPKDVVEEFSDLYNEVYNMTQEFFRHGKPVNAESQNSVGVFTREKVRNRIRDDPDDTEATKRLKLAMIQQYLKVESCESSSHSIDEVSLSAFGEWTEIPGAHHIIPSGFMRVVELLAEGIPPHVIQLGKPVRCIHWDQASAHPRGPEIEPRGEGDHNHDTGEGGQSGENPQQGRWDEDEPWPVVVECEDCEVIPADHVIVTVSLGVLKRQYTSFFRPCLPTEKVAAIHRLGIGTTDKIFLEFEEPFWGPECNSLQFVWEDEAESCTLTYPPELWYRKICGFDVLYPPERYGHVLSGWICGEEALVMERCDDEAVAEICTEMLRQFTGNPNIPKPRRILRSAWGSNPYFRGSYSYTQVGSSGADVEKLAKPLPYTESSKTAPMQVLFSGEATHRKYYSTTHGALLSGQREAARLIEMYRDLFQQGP

Structure (SMILES): C#CCN(C)Cc1ccccc1 [pargyline]
Activity with tyramine with respect to control sample [5]: 2%

Structure (SMILES): [H]/N=C(\N/C(=N/[H])NCCCCCCNC(=N)NC(=N)Nc1ccc(Cl)cc1)Nc1ccc(Cl)cc1 [Chlorhexidine, chlorhexidine, reference compound]
Ki [1]: 3800 ± 200 nM
SMOX Kmapp [1]: 1402 ± 124 µM

Structure (SMILES): c1ccc(CNCCCCCCCCCCCCNCc2ccccc2)cc1 [Compound 9, N1,N^12-dibenzyldodecanediamine]
SMOX Kmapp/Km0 [1]: 2.3
SMOX Kmapp [1, 10]: 1135 ± 141 µM
PAOX Kmapp/Km0 [2]: 108
PAOX Kmapp [2]: 41 ± 221 µM

Further lines, with some results ahead:

SMOX Kmapp/Km0 [1]: 1.21
SMOX Kmapp [1, 10]: 598 ± 156 µM
PAOX Kmapp/Km0 [2]: 112
PAOX Kmapp [2]: 43 ± 9 µM
Structure (SMILES): COc1ccccc1CN(C)CCCCCC(=O)N(C)CCCCCCCCN(C)C(=O)CCCCCN(C)Cc1ccccc1OC [Compound 14, Caproctamine]

SMOX Kmapp/Km0 [1]: 1.2
SMOX Kmapp [1, 10]: 600 ± 100 µM
PAOX Kmapp/Km0 [2]: 9
PAOX Kmapp [2]: 3.40 ± 0.26 µM
Structure (SMILES): NCCCCCCCCCCCCN [DIADO, 1,12-diaminododecane, reference compound]
Behaviour towards MAO A [3]: excellent substrate
Ki [4]: > 1 mM

Ki [1]: 1200 ± 100 nM
SMOX Kmapp/Km0 [1]: 18
SMOX Kmapp [1, 10]: 8940 ± 1600 µM
Mode of inhibition of SMOX ([1]; double reciprocal plots): competitive inhibitors
IC50 [7]: 160 ± 10 nM
IC50 in HT22 cells relative to Ki of recombinant enzyme ([7]; IC50/Ki): about 16 times
Ki [2]: 10 ± 1.5 nM
Mode of inhibition of PAOX ([2]; double reciprocal plots): competitive inhibitors
Structure (SMILES): COc1ccccc1CNCCCCCCNCCCCCCCCNCCCCCCNCc1ccccc1OC [Compound 10, Methoctramine]
Cytotoxicity [6]: low cytotoxicity
Effect on ODC [8]: did not significantly affect
Effect on SSAT [9]: did not significantly affect

Source: PMC6407594 (Journal of Enzyme Inhibition and Medicinal Chemistry, 2019)
